# From patent publication US9642831B2, “Substituted chromanes and method of use” (AbbVie S.á.r.l., priority 2014, dated 2017)
# Assays:
# [1] = test system: CYP3A4; assay: CYP3A4 induction in primary human hepatocytes (mRNA, RT-PCR); conditions: test compounds 10 μM, 48 hours, % of response of positive control (Rifampin 10 μM)
# Description: Cryopreserved primary human hepatocytes were thawed and cultured overnight prior to treatment. […] Following the 48 hour treatment, hepatocytes were harvested for RNA isolation and reverse transcription, followed by CYP3A4 mRNA quantitation using RT-PCR (real time reverse transcript polymerase chain reaction).
# Fold Induction=Fold of Treated/Fold of Vehicle Control % positive control=(Fold Induction of Treated−1)/(Fold Induction of Prototypical Inducer−1)
# [2] = biological target: T1, F508delCFTR (Homo sapiens, UniProt P13569, DEL508-508); assay: Cell Surface Expression-Horse Radish Peroxidase (CSE-HRP) assay; format: cell-based; parameters: expressed in transfected cells; host or cells: CFBE41o- human lung derived epithelial cell line, doxycycline-inducible; conditions: CFBE4lo-F508delCFTR-HRP cells
# T1 sequence (P13569 with tags, fused parts or gaps DEL508-508): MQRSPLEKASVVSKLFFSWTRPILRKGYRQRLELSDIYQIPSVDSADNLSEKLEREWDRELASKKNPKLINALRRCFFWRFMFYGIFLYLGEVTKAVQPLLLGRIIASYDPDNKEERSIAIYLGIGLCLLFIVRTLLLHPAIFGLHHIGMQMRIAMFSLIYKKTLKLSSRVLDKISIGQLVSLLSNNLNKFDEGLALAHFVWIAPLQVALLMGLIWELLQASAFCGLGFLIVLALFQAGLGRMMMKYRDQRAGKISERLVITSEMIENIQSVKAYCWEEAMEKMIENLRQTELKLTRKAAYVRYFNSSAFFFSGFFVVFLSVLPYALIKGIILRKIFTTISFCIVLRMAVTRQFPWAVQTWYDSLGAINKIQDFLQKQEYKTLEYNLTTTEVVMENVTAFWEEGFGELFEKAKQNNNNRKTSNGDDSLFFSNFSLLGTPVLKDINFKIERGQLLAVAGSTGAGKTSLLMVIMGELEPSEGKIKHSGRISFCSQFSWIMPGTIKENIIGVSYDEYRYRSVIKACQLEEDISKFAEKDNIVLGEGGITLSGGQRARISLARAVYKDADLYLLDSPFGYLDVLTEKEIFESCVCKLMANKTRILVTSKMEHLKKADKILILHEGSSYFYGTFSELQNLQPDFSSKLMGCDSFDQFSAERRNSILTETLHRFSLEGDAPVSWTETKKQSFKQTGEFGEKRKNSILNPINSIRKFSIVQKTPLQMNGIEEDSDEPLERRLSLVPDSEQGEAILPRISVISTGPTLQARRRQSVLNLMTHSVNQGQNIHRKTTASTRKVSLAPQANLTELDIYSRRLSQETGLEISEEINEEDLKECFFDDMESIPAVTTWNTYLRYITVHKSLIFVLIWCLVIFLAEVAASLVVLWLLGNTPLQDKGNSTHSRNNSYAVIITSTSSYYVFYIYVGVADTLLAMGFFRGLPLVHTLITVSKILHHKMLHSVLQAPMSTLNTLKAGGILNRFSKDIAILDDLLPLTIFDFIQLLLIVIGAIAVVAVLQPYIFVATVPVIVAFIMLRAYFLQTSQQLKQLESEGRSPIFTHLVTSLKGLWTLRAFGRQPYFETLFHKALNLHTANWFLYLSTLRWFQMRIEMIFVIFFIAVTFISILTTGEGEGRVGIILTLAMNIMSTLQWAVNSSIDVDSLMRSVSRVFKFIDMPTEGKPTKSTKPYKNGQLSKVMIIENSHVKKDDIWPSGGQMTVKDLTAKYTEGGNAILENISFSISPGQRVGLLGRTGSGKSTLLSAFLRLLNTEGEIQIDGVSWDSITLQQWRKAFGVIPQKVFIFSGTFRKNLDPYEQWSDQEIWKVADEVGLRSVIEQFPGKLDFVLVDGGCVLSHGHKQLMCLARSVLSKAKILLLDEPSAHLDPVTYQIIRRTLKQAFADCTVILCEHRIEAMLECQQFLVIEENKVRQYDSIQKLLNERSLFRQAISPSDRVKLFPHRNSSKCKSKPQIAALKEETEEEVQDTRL
# In short: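 Following 18-24 h compound exposure at 33° C. Expression was doxycycline-induced beforehand. % activity versus DMSO and a 3 μM corrector control gave maximum activity and EC50 from a variable-Hill sigmoidal fit.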
# [3] = biological target: T1, F508delCFTR; assay: Transepithelial Clamp Circuit (TECC-24) conductance assay on primary human bronchial epithelial cells (hBE-TECC); format: cell-based; parameters: cells isolated from CF patients with the homozygous mutation; endogenous in cells; host or cells: primary human bronchial epithelial (hBE) cells from F508del/F508del CF patients
# Source text: Transepithelial Clamp Circuit on Human Bronchial Epithelial Cells Conductance Assay:
# A cell based assay using the primary human bronchial epithelial cells (hBE) was used as a secondary assay to test novel F508delCFTR correctors for their activity on primary hBE cells with F508del/F508del CFTR mutation. The assay used a TECC-24 (Transepithelial Clamp Circuit for 24 wells) instrument that measures the functionality of the mutated channel by measuring the equivalent short circuit current (Ieq) generated by the polarized epithelial cells. The instrument works by measuring the transepithelial potential difference (Vt) and transepithelial resistance (Rt) in an open circuit format, and the Ieq is calculated by using Ohms law (Ieq=Vt/Rt). The assay was run in a 24-well format and all 24-wells were measured at the same time point giving a higher throughput for this assay.
# Primary human bronchial epithelial (hBE) cells from F508del/F508delCFTR patients were expanded from 1×10^6 to 250×10^6 cells (Neuberger T, Burton B, Clark H and VanGoor F; Cystic Fibrosis, Methods in Mole Biol 741; eds. Amaral M D and Kunzelmann K, 2011). For this purpose, cells isolated from CF patients with the homozygous mutation were seeded onto 24 well Corning (Cat #3378) filter plates that were coated with 3T3 conditioned media and grown at an air-liquid interface for 35 days using an Ultroser® G supplemented differentiation media. Apical surface mucus was removed 72 hours before the experiment using 3 mM dithiothreitol (DTT) in phosphate buffered saline (PBS). The apical surface was washed again 24 hours before the experiment using PBS. The cells were incubated with the desired dose response of the corrector compounds 18-24 hours at 37° C., 5% CO2. The corrector compounds are only added on the basolateral side of the epithelial cells.
# On the day of measuring the corrector activity on the TECC, the cells were switched into a bicarbonate and serum free F-12 Coon's medium and allowed to equilibrate for 90 minutes in a CO2 free incubator. At the time of measurement, the apical and basolateral sides of the filter were bathed with the F-12 Coon's modification media (with 20 mM 4-(2-hydroxyethyl)-1-piperazineethanesulfonic acid (HEPES), pH 7.4 (using 1 M tris(hydroxymethyl)aminormethane (Tris)), and the measurements were made at 36.5° C. Transepithelial voltage (Vt) and transepithelial resistance (Rt) were measured using a 24 channel transepithelial current clamp (TECC-24). Current responses to the sequential addition of benzamil (apical 6 μM addition; for inhibiting epithelial ENaC channel), forskolin (apical and basolateral 10 μM addition; for activating the CFTR channel), control potentiator (N-(3-carbamoyl-5,5,7,7-tetramethyl-4,7-dihydro-5H-thieno[2,3-c]pyran-2-yl)-1H-pyrazole-5-carboxamide; apical and basolateral 1 μM addition; for potentiating the CFTR channel) and bumetanide (basolateral 20 μM addition; for inhibiting the Na:2Cl:K co-transporter, an indirect measure of inhibiting the Cl-secretion driven by CFTR channel) were measured.
# All plates contained negative controls (dimethyl sulfoxide, DMSO) which coupled with the control potentiator (N-(3-carbamoyl-5,5,7,7-tetramethyl-4,7-dihydro-5H-thieno[2,3-c]pyran-2-yl)-1H-pyrazole-5-carboxamide) sets the null response and positive controls (3 μM of 3-[(2R,4R)-4-({[1-(2,2-difluoro-1,3-benzodioxol-5-yl)cyclopropyl]carbonyl}amino)-7-methoxy-3,4-dihydro-2H-chromen-2-yl]benzoic acid) coupled with the control potentiator sets the 100% response to measure the correction of the mutated CFTR channel. The maximum percent activity is reported relative to the positive control value.
# The % activity measured at each of the 6 test concentrations of the test compound was normalized to the on-plate positive control using the following formula: % activity=[(test compound response−DMSO response)/(positive control response−DMSO response)]*100 […]
structure (smiles),measurement,setting,value
"O=C(O)C1CCCC([C@H]2C[C@@H](NC(=O)C3(c4ccc5c(c4)OC(F)(F)O5)CC3)c3ccc(C(F)(F)F)cc3O2)C1 (stereo partly drawn) [Example 109, 3-[(2R,4R)-4-({[1-(2,2-difluoro-1,3-benzodioxol-5-yl)cyclopropyl]carbonyl}amino)-7-(trifluoromethyl)-3,4-dihydro-2H-chromen-2-yl]cyclohexanecarboxylic acid]",CYP3A4 Hepatocytes mRNA % of positive control,[1],42.2%
same,EC50,"[2]; 18-24 hours at 33° C., 8-point curve, highest concentration 20 μM, luminescence readout",450 nM
same,Emax,"[2]; maximum % activity at any tested concentration, normalized to on-plate positive control (3 μM Example 1)",94%
same,EC50,"[3]; primary hBE cells from F508del/F508delCFTR patients, corrector 18-24 hours at 37° C., equivalent short circuit current (Ieq), with control potentiator 1 μM",55 nM
same,Emax,"[3]; relative to positive control (3 μM Example 1 coupled with control potentiator = 100%), primary hBE F508del/F508del cells, read-out: Maximum % activity (%)",70%
